From patent US10758522B2, “Small molecule analogs of the nemo binding peptide” (THE SCRIPPS RESEARCH INSTITUTE, priority 2015, dated 2020) come the findings set out here.

One experiment has as its system p-IκBα. The experiment is described as follows: Western blot of IκBα phosphorylation after TNF-α. It is filed as cell-based. Particulars: 10 ng/ml TNF-α, 0, 5 and 10 min, 100 μM compound. Here is the method: (§1) To confirm that the NBD mimetics reduce IKK activity, the extent of phosphorylation of the IKK target, IκBα, in response to 10 ng/ml of TNF-α was determined by Western blot at 0, 5 and 10 min after TNF-α stimulation. […] To determine if the mimetics also reduce NF-κB DNA binding activity, electrophoretic mobility shift assay (EMSA) was conducted both in vivo and in vitro.
HEK293 cells grown in a 6-well plate at 1×10^6 cells/well were left untreated or treated with 100 μM of ZINC12909780 or ZINC3369392 for 30 min, followed by 10 ng/ml of TNFα for 0, 5 and 10 min. Cells were then harvested for western blot. Cell lysate was prepared in RIPA buffer (20 mM Tris-HCl (pH 7.5), 150 mM NaCl, 1 mM Na^2EDTA, 1 mM EGTA, 1% NP-40, 1% sodium deoxycholate, 2.5 mM sodium pyrophosphate, 1 mM beta-glycerophosphate, 1 mM Na3VO4, 1 μg/ml leupeptin, 1× protease inhibitor cocktails (sigma) and 1× Halt phosphatase inhibitor cocktail (Thermo)). 30 ug of protein was resolved by MINI-PROTEAN TGX 4-15% SDS-PAGE. Blots were blocked in 5% non-fat milk. Primary antibodies were incubated at 4° C. overnight and secondary antibodies were incubated at room temperature for 1 hour. Anti-p-IκBα (1:1000 CST) and anti-IκBα (1:2000 CST) were used to assess NF-κB activation. Anti-GAPDH (1:5000 CST) was used as a loading control.

For experiment [1], the system named is NF-κB. The experiment is described as follows: EMSA of NF-κB DNA binding in C2C12 cells. In kind it is cell-based, mouse. The settings on record: 200 μM. Here is the method:
as §1
(§2) Cytoplasmic and nuclear fractions were extracted using the NE-PER nuclear and cytoplasmic extraction reagents (ThermoFisher) according to the manufacturer's instructions. The gel shift assay was performed by following the previously described method (41). In brief, 5 μg of nuclear extract was incubated with gel shift binding buffer and an α-^32P-deoxycytodine triphosphate-radiolabeled NF-κB probe for 20 min at room temperature (MP Biomedicals). The oligonucleotide sequences are as follows: NF-κB template, 5′-[…]-3′; NF-κB annealing, 5′-[…]-3′. The reaction product was separated on a 6% non-denaturing polyacrylamide gel.
In general terms: A gel shift assay detects complexes by their altered migration in electrophoresis.

Experiment [2] relates to NF-κB. The experiment is described as follows: EMSA of NF-κB DNA binding in skeletal muscle of mdx mice after acute treatment. It is filed as in vivo, mouse. The settings on record: single ip injection at 10 mg/kg, 1 and 2 hours post-treatment. Here is the method: We also tested the compounds for their ability to inhibit NF-κB activity acutely in a murine model of disease. For these experiments, a mouse model of Duchenne muscular dystrophy, which has elevated NF-κB activity in muscle, was treated with Zinc-13 (NBDA-1) and Zinc-5 (NBDA-2) and the level of NF-κB activity determined by gel shift analysis at 1 and 2 hours post-treatment.
as §1, §2

In another experiment the test system is Ercc1−/Δ mice. The experiment is described as follows: Systemic treatment of Ercc1−/Δ mice, intervertebral disc proteoglycan. It is filed as in vivo, mouse. Particulars: IP 3× a week, 10 mg/kg for 8 weeks. The protocol:
The ability of the compounds to work systemically was also tested. In these experiments, Ercc1^−/Δ mice with accelerated aging (lifespan of 5 months) were treated systemically, 3× a week, by IP injection at a dose of 10 mg/kg for 8 weeks. Since we previously had shown that the NF-κB is a key factor in driving intervertebral disc degenerated, we assessed the effects of treatment on proteoglycan synthesis and content in the discus following treatment.

In experiment [3] the test system is K14-Cre+/−; Ercc1−/fl; Skh1−/− mice. Nature of the experiment: Naked mouse skin photoaging study, topical treatment. In kind it is in vivo. Here is the method:
Naked mice of strain K14-Cre^+/−; Ercc1^−/fl; Skh1^−/− were treated with SR12343 versus vehicle control, then exposed to UV light for […]. The NBD mimetic SR12343 and SR2460 were tested for their ability to reduce the effects of photoaging in a mouse model. To make analysis of skin aging easier, usually hairless mice are utilized. Previously studies have shown that exposure of the hairless Skh1^−/− mouse to UV results in skin aging over 5 months as measured by skin thickness, elastosis, collagen damage, synthesis and degradation, increased ratio of collagen III to I, increased GAGs, and wrinkles and sagging. To accelerate this photoaging process, we generated a mouse model where Ercc1-dependent DNA repair activity is eliminated in K14 expressing skin cells in the Skh1^−/− mice (K14-Cre^+/−; Ercc1^−/fl; Skh1^−/− mice). In these mice, chronic UV exposure gives rise to evidence of photoaging 6 times faster than in the Skh1^−/− mice, allowing for analysis of skin aging in 2-4 weeks (FIGS. 51 (A, B, and C).
For testing of drugs for effects on photoargng in the K14-Cre^+/−; Ercc1^−/fl; Skh1^−/− mice, the mice are first tattooed to outlined quadrants for drug treatment. The mice were then exposed to UV 3× (total of 1 kJ/m^2/wk) for 4 weeks in a tanning booth. This dose regiment is the equivalent of one year of sun exposure.
A 50 mg/ml solution of SR12343 was then prepared in a DMSO gel for topical application. The SR12343 gel was administered topically 5 times per week and mice exposed to UV 3× per week as indicated. It is important to note that the compound was administered following UV dosing to eliminate any anti-UV effects of the drug. At the midway point and at the end of the experiment, the mice were analyzed using a TEWL Meter for skin thickness, elasticity and hydration. At the time of sacrifice, skin sections are taken for analysis of the extent of cellular senescence by RT-PCR.

In experiment [4] the test system is NF-κB. Nature of the experiment: Dual-luciferase (NF-κB firefly / SV40 Renilla) reporter assay in HEK293 cells. It is filed as cell-based. Particulars: Homo sapiens; inhibition of TNF-α-induced NF-κB activation, HEK293, luciferase assays at 0, 25, 50, 100 and 150 μM, GraphPad. The protocol:
Thus seven rounds of structural modification and optimization were performed to improve bioactivity and stability and more than one hundred small molecules were tested (data not shown). […] To minimize the influence of drug toxicity on the screening assay, a renilla luciferase reporter driven by the SV40 promoter was cotransfected with the NF-κB luciferase reporter into HEK293 cells as a co-reporter for normalization.
Inhibitory effects of NBD mimetics on NF-κB activation were measured by luciferase assays at multiple concentrations: 0, 25, 50, 100 and 150 μM. IC50 of NBD mimetics was determined based on the dose-dependent curve by using GraphPad.
HEK293 cells grown in 10 cm plates were co-transfected with co-reporter of Renilla plasmid driven by SV40 and luciferase plasmid driven by NF-κB at the ratio of 1:3 with Lipofectamine 2000 (Invitrogen). Transiently transfected HEK293 were grown and treated as described above and subjected to a dual-luciferase reporter assay according to the manufacturer's instruction. Firefly luciferase activity was normalized to Renilla luciferase to get the relative luciferase activity.
Background: In a reporter assay the amount or activity of a reporter protein is the signal.

pIC50: −log10 of the molar value.

A word on the pIC50: it is −log10 of the IC50, conventionally taken in molar units.

`Nc1ncccc1C(=O)OCC(=O)Nc1ccc(Cl)cc1F` [NBDA-1, 2-((4-chloro-2-fluorophenyl)amino)-2-oxoethyl 2-aminonicotinate]: the “level of phospho-IκBα / phosphorylation of IkB” value is on record as “reduces the level of phospho-IκB” with p-IκBα, “reduced phosphorylation of IkB” with p-IκBα (listed as Zinc-13) and “mild reduction” in the experiment with p-IκBα (listed as compound 12909780). For the same compound, the “TNFα-induced NF-κB DNA binding activity (EMSA)” value with NF-κB [1] is recorded as “significantly decreased TNFα-induced NF-κB DNA binding activity”. The “NF-κB DNA binding activity in quadriceps of mdx mice” value in the experiment with NF-κB [2] (listed as Zinc-13, 10 mg/kg) was “reduced NF-κB DNA binding activity in the skeletal muscle (quadricep)”; with NF-κB [2] (listed as compound 12909780, 10 mg/kg) it was “inhibited NF-κB DNA binding activity in quadriceps”. Further, the “proteoglycan synthesis and content in the intervertebral disc” value in the experiment with Ercc1−/Δ mice is “increased the proteoglycan content”.
With `O=C(CNc1ccc(Cl)cn1)NCCc1cccc(Br)c1` [SR12343, N-(3-bromophenethyl)-2-((5-chloropyridin-2-yl)amino)acetamide], in experiment [3] (50 mg/ml in DMSO gel, topical 5 times per week, UV 3× per week), the “overall appearance of the skin, wrinkles” value is “reducing the number and depth of the wrinkles”. Further, in experiment [3] (topical gel, UV-exposed), the skin elasticity result is listed as “restores skin elasticity” and the skin hydration result is “improved skin hydration”. In addition, the “expression of senescent marker p16 in skin” value in experiment [3] (topical gel, UV-exposed, RT-PCR) is reported as “lowered the expression of senescent markers such as p16”. In experiment [3] (topical treatment), the “molecular markers of skin aging and appearance of the skin” value was “improved molecular markers of skin aging as well as the overall appearance of the skin”.
Take `O=C(CNCCc1cc(F)cc(F)c1)Nc1ccc(Cl)cn1` [SR12460, N-(5-chloropyridin-2-yl)-2-((3,5-difluorophenethyl)amino)acetamide]: the pIC50 in the experiment on NF-κB [4] is 4.95.
